From patent US20050089471A1, “Labeled ligands for lectin-like oxidized low-density lipoprotein receptor (LOX-1)” (priority 2003, published 2005)
Where no end group is shown, it is not given here. fluorescein = fluorescein (Fl)

Test system: human endothelial coronary artery cells (HCAECs) which are known in the literature to express LOX-1
Experiment: Fluorescent confocal imaging of labeled peptide bound to HCAECs
Type: cell-based
Conditions: HCAECs grown in glass slides, fluorescent confocal microscope, FIG. 2
Protocol: Images in the assay may be acquired using a laser confocal microscope or an Imager. For example, images of peptides bound to cells can be obtained using a laser confocal microscope as follows: HCAE cells can be grown on high quality borosilicate 8-chambered glass slides (Electron Microscopy Sciences, Fort Washington, Pa.). Then, about 10 μL of 1 mg/ml of an aqueous solution of a labeled peptide can be added to the cells and incubated for 1 hour. Subsequently, the cells preferably are washed with HBSS buffer three times. The cells then can be fixed with 4% formaldehyde solution over 10 minutes. After a final wash with buffer, the slide is imaged. Images preferably are acquired using an OLYMPUS laser scanning confocal microscope, model Fluoview 300, using Ar-ion laser (selecting 488 nm line) and a 510-nm long-pass filter. Images can be acquired using two channels: reflected light and fluorescent mode channel, or an overlay of both channels.
The experimental conditions for imaging the peptide-labeled HCAECs are described previously.

## Fl-KKGG-FQTPPQL (fluorescein-KKGGFQTPPQL) [peptide FQTPPQL conjugated with fluorescein via KKGG linker]
  binding to / localization on HCAECs (fluorescent image): shown to bind
